# Assays:
# [1] = LNP characterization of base editor LNP preparations (DLS diameter, PDI, encapsulation efficiency); format: physicochemical
# Experimental: (§1) Lipid nanoparticle components are dissolved in 100% ethanol at specified lipid component molar ratios. mRNA encoding an adenine base editor and a chemically-modified sgRNA is dissolved at a mass ratio of 1:1 in 10 mM citrate, 100 mM NaCl, pH 4.0, resulting in a concentration of NA cargo of approximately 0.22 mg/mL. LNP preparations are formulated with molar ratios of either 50% Ionizable Lipid: 38.5% Cholesterol: 1.5% PEG2000-DMG: 10% DSPC or 47.5% Ionizable Lipid: 40% Cholesterol: 2.5% PEG2000-DMG: 10% DSPC both at a total lipid to NA molar ratio of 6.
# (§2) LNP preparations are formed by microfluidic mixing of the lipid and NA solutions using a Precision Nanosystems NanoAssemblr Ignite Instrument, according to the manufacturer's protocol. A 3:1 ratio of aqueous to organic solvent is maintained during mixing using differential flow rates. After mixing, LNP preparations are collected, diluted in PBS (approximately 2:1 v/v), and further buffer exchange is conducted using dialysis in PBS at 4° C. for 8 to 24 hours against a 20 kDa filter. After this initial dialysis, each individual LNP preparation is characterized via dynamic light scattering (DLS) to measure size and polydispersity. pKa of a subpopulation of LNP preparations is measured via TNS assay. After dialysis, LNP preparations are sterile filtered using 0.22 micron sterile filter and stored at 4° C. for further use. In some embodiments, LNP preparations may be concentrated using 100 kDa Amicon filters per manufacturer's protocol.
# DLS—LNP preparation hydrodynamic diameter and polydispersity index (PDI) is measured using high throughput dynamic light scattering (DLS) (DynaPro plate reader II, Wyatt). LNP preparations are diluted 1×PBS to an appropriate concentration and analyzed.
# Concentration of NA is determined by Qubit microRNA kit (for siRNA) or HS RNA kit (for mRNA) per manufacturer's instructions. Encapsulation efficiency is determined by measuring unlysed and lysed LNPs.
# PCSK9 target site = assay: In vivo base editing with ABE mRNA and sgRNA targeting PCSK9; set-up: species or system Balb/c mice; conditions: dose 0.03 MPK (mg total RNA/kg) IV, formulation ratio 47.5:40:2.5:10, liver, 4 days after dosing
# Experimental: as §1, §2
# (§3) Male Balb/C mice aged approximately 8-12 weeks are used in the experiments described herein. Each mouse is temporarily restrained, and LNP preparations are administered IV via tail vein injection. Age-matched mice are also used to administer vehicle (1×PBS) via tail vein injection as a control. Four to six days post-dose, tissues including liver, spleen, heart and muscle are collected (only liver and muscle (quardracept) are reported). Genomic DNA is isolated and fragmented and adapter-ligated using the Nextera DNA Flex Library Prep Kit (Illumina) using the 96-well plate Nextera indexing primers (Illumina), according to the manufacturer's instructions. Library size and concentration is confirmed by Fragment Analyzer (Agilent) and sent to Novogene for whole genome sequencing using an Illumina HiSeq.
# For base editing, mRNA encoding an adenine base editor (ABE) and a guide RNA (sgRNA) targeting PCSK9 at 1:1 (mass ratio) are coencapsulated in LNP preparations as described herein. LNP preparations are administrated into Balb/c mice through tail vein injections at concentration of 0.03 mg total RNA/kg. […] Base editing is determined by performing targeted deep sequencing analysis at the PCSK9 target site using extracted genomic DNA.
# [2] = LNP preparation characterization (encapsulation efficiency, DLS size and polydispersity), barcoded screen LNPs; format: physicochemical; conditions: LNP 47.5% ionizable lipid: 40% cholesterol: 2.5% PEG-2000 DMG: 10% DPSC, N/P 4.5-6; for AVG PDI / AVG Z Dia (nm): DLS
# Experimental: Lipid nanoparticle components were dissolved in 100% ethanol at specified lipid component molar ratios. Nucleic acid (NA) cargo was dissolved in 10 mM citrate, 100 mM NaCl, pH 4.0, resulting in a concentration of NA cargo of approximately 0.22 mg/mL. In some embodiments, NA cargos included both a functional NA and a reporter barcode mixed at mass ratios of 1:10 to 10:1 functional NA to barcode. As described herein, a NA can be a siRNA, an anti-sense, an expressing DNA, or mRNA.
# LNP preparations were prepared with 47.5% Ionizable Lipid (e.g., a compound provided herein): 40% cholesterol: 2.5% PEG-2000 DMG: 10% DPSC and an N/P ratio range of 4.5-6. LNP preparations were formed by microfluidic mixing of the lipid and NA solutions using Precision Nanosystems NanoAssemblr Spark or Benchtop series Instruments, according to the manufacturer's protocol.
# A ratio of aqueous to organic solvent of approximately 2:1 or 3:1 was maintained during mixing using differential flow rates. After mixing, LNP preparations were collected, diluted in phosphate buffer saline (PBS) or Tris-buffered saline (TBS) (approximately 1:1 v/v). Further buffer exchange was conducted using dialysis in PBS or TBS at 4° C. for 4 to 24 hours against a 20 kDa filter. After this initial dialysis, each individual LNP preparation may be characterized via dynamic light scattering (DLS) to measure the size (e.g., diameter) and polydispersity. LNP preparations falling within specific diameter and polydispersity ranges were pooled, and further dialyzed against PBS or TBS at 4° C. for 1 to 4 hours against a 100 kDa dialysis cassette. After the second dialysis, LNP preparations were sterile filtered using 0.22 μm filter and stored at 4° C. for further use.
# ALAS1 target site = assay: In vivo base editing with ABE mRNA and sgRNA targeting ALAS1; set-up: species or system Balb/c mice; conditions: for Liver Editing A->G (%): formulation ratio 50:38.5:1.5:10, liver, 4 days after dosing
# Experimental: as §1, §2, §3
# For base editing, mRNA encoding an adenine base editor (ABE) and a guide RNA (sgRNA) targeting ALAS1 at 1:1 (mass ratio) are coencapsulated in LNP preparations as described herein. LNP preparations are administrated into Balb/c mice through tail vein injections at concentrations ranging from 0.05 to 3.0 mg/kg total RNA. At 4 days after dosing, mice are euthanized and liver, spleen and bone barrow are harvested. Base editing is determined by performing targeted deep sequencing analysis at the ALAS1 target site using extracted genomic DNA.
# [3] = Table E LNPs, formulation ratio 47.5:40:2.5:10, ABE mRNA/PCSK9 sgRNA
# [4] = Table D LNPs, formulation ratio 50:38.5:1.5:10, ABE mRNA/ALAS1 sgRNA
# [5] = dose 3 MPK IV, formulation ratio 50:38.5:1.5:10, quadricep muscle
# [6] = Table C LNPs, formulation ratio 47.5:40:2.5:10, ABE mRNA/ALAS1 sgRNA
SMILES,"Diameter (nm) [1, 3] [nm]","EE (%) [1, 3] [%]",AVG EE(%) [2] [%],AVG PDI [2],AVG Z Dia (nm) [2] [nm],"Diameter (nm) [1, 4] [nm]","EE (%) [1, 4] [%]","PDI (%) [1, 4] [%]",Liver Editing A->G (%) (PCSK9 target site),Quadrecept Editing A->G (%) (ALAS1 target site; [5]),further results
"C=CCCCCCCC(CCCCCCC=C)OC(=O)CCCCC(=O)OCC(COC(=O)CCCCC(=O)OC(CCCCCCC=C)CCCCCCC=C)COC(=O)CCCN1CCCC1 [Compound (3), 1-Heptadeca-1,16-dien-9-yl6-[2-({[6-(hentadeca-1,16-dien-9-yloxy)-6-oxohexanoyl]oxy}methyl)-3-{[4-(pyrrolidin-1-yl)butanoyl]oxy}propyl]hexanedioate]",,,85.3,0.13,77.22,69.8,99.3,11.9,,3.8,Liver Editing A->G (%) (ALAS1 target site; dose 3 MPK IV): 69.43%
"C=CCCCCC(CCCCC=C)OC(=O)CCCCCCC(=O)OCC(COC(=O)CCCCCCC(=O)OC(CCCCC=C)CCCCC=C)COC(=O)CCCN1CCCC1 [Compound (6), 1-[2-({[8-Oxo-8-(trideca-1,12-dien-7-yloxy)octanoyl]oxy}methyl)-3-{[4-(pyrrolidin-1-yl)butanoyl]oxy}propyl]-8-trideca-1,12-dien-7-yl octanedioate]",,,78.0,0.10,97.43,73.7,98.07,15.3,,1.17,Liver Editing A->G (%) (ALAS1 target site; dose 3 MPK IV): 78.46%
"C=CCCCCCC(CCCCCC=C)OC(=O)CCCCCC(=O)OCC(COC(=O)CCCCCC(=O)OC(CCCCCC=C)CCCCCC=C)COC(=O)OCC1CCCN(CC)C1 (centres unmarked) [Compound (25), O1-[2-[(1-ethyl-3-piperidyl)methoxycarbonyloxymethyl]-3-[7-(1-hept-6-enyloct-7-enoxy)-7-oxo-heptanoyl]oxy-propyl] O7-(1-hept-6-enyloct-7-enyl) heptanedioate]",,,94.4,0.12,,79.55,96.9,,,,"Diameter (nm) [1, 6]: 75.47 nm; EE (%) [1, 6]: 99.1%; PDI (%) [1, 6]: 1.2%; Liver Editing A->G (%) (ALAS1 target site; dose 0.05 MPK IV): 0.27%; Quadrecept Editing A->G (%) (ALAS1 target site; dose 3 MPK IV, formulation ratio 47.5:40:2.5:10, quadricep muscle): 2.93%"
"C=CCCCC(CCCC=C)OC(=O)CCCCC(=O)OCC(COC(=O)CCCCC(=O)OC(CCCC=C)CCCC=C)COC(=O)CCCN1CCCC1 [Compound (33), 1-[2-({[6-Oxo-6-(undeca-1,10-dien-6-yloxy)hexanoyl]oxy}methyl)-3-{[4-(pyrrolidin-1-yl)butanoyl]oxy}propyl] 6-undeca-1,10-dien-6-yl hexanedioate]",,,98.3,0.10,133.71,179.7,75.69,23.4,,0.1,
C=CCCCCC(CCCCC=C)OC(=O)CCCCCC(=O)OCC(COC(=O)CCCCCC(=O)OC(CCCCC=C)CCCCC=C)COC(=O)CCCN1CCCC1 [Compound (2)],,,83.5,0.06,108.73,98.8,98.59,9.5,,,"Liver Editing A->G (%) (ALAS1 target site; dose 1.5 MPK IV): 79.48%; Quadrecept Editing A->G (%) (ALAS1 target site; dose 1.5 MPK IV, formulation ratio 50:38.5:1.5:10, quadricep muscle): 3.19%"

# More lines, main results first:
"Diameter (nm) [1, 3] [nm]","EE (%) [1, 3] [%]",AVG EE(%) [2] [%],AVG PDI [2],AVG Z Dia (nm) [2] [nm],"Diameter (nm) [1, 4] [nm]","EE (%) [1, 4] [%]","PDI (%) [1, 4] [%]",SMILES,Liver Editing A->G (%) (PCSK9 target site),Quadrecept Editing A->G (%) (ALAS1 target site; [5]),further results
65.7,96.55,,,,,,,"CC/C=C\CCCC(CCC/C=C\CC)OC(=O)CCCCCC(=O)OCC(COC(=O)CCCCCC(=O)OC(CCC/C=C\CC)CCC/C=C\CC)COC(=O)OCCCN(CC)CC [Compound (29), O1-[2-[3-(diethylamino)propoxycarbonyloxymethyl]-3-[7-[(Z)-1-[(Z)-hept-4-enyl]oct-5-enoxy]-7-oxo-heptanoyl]oxy-propyl] O7-[(Z)-1-[(Z)-hept-4-enyl]oct-5-enyl] heptanedioate]",7.53,,"PDI (%) [1, 3]: 11.9%"
81.94,87.5,,,,,,,"CC/C=C\CCCC(CCC/C=C\CC)OC(=O)CCCCCC(=O)OCC(COC(=O)CCCCCC(=O)OC(CCC/C=C\CC)CCC/C=C\CC)COC(=O)NCCCn1ccnc1 [Compound (32), 1-{2-[({[3-(1H-imidazol-1-yl)propyl]carbamoyl}oxy)methyl]-3-({7-oxo-7-[(3Z,12Z)-pentadeca-3,12-dien-8-yloxy]heptanoyl}oxy)propyl} 7-(3Z,12Z)-pentadeca-3,12-dien-8-yl heptanedioate]",0.06,,
67.06,97.15,,,,,,,"CC/C=C\CCCC(CCC/C=C\CC)OC(=O)CCCCCC(=O)OCC(COC(=O)CCCCCC(=O)OC(CCC/C=C\CC)CCC/C=C\CC)COC(=O)OCCCN1CCCC1 [Compound (30), 1-[3-({7-Oxo-7-[(3Z,12Z)-pentadeca-3,12-dien-8-yloxy]heptanoyl}oxy)-2-[({[3-(pyrrolidin-1-yl)propoxy]carbonyl}oxy)methyl]propyl] 7-(3Z,12Z)-pentadeca-3,12-dien-8-yl heptanedioate]",1.53,,
103.5,93.42,,,,,,,"CC/C=C\CCCC(CCC/C=C\CC)OC(=O)CCCCCC(=O)OCC(COC(=O)CCCCCC(=O)OC(CCC/C=C\CC)CCC/C=C\CC)COC(=O)NCCN1CCN(C)CC1 [Compound (31), 01-[2-[[7-[(Z)-1-[(Z)-hept-4-enyl]oct-5-enoxy]-7-oxo-heptanoyl]oxymethyl]-3-[2-(4-methylpiperazin-1-yl)ethylcarbamoyloxy]propyl] O7-[(Z)-1-[(Z)-hept-4-enyl]oct-5-enyl] heptanedioate]",0.02,,

# Reference: patent publication US20260176283A1, “IONIZABLE LIPIDS WITH LINEAR HEAD GROUPS” (Beam Therapeutics Inc., priority 2023, published 2026)
